Experiment: Cell growth on CLC versus other substrates (FIG. 13)
Assay type: cell-based
Conditions: CLC compared to PDMS, agarose or cholesteryl oleyl carbonate substrates
Protocol: Varying ratio of mesogen were weighted to generate a scaffold with desirable phase transition. The mesogens were heated to the melt phase of about 80° C. and then pipetted onto surfaces to create CLC-coated substrates. The substrates were then placed in well plates cell culture media and cells were added to the substrates using traditional cell seeding techniques. The scaffold directed cellular organization once the scaffold was placed in the cell culture incubator with seeded cells on the surface.

In the case of CCCCCCCC/C=C\CCCCCCCCOC(=O)O[C@H]1CC[C@@]2(C)C(=CC[C@H]3[C@@H]4CC[C@H]([C@H](C)CCCC(C)C)[C@@]4(C)CC[C@@H]32)C1 [cholesteryl oleyl carbonate], the “cell growth on substrate” value is reported as “cell growth was only observed on CLC substrate”.

From patent US20250313808A1, “LIQUID CRYSTAL SCAFFOLDS AND USE THEREOF FOR ORGANOID, SPHEROID, AND 3D CELLAGGREGATE MANUFACTURING” (THE REGENTS OF THE UNIVERSITY OF CALIFORNIA, priority 2022, published 2025)
